Measured values published in patent US20260049092A1, “ANTIBACTERIAL COMPOUNDS” (Blacksmith Medicines, Inc., priority 2022, published 2026).
Converted amounts (≈) assume the structure as drawn. Like-named read-outs stand apart in the source and are kept apart here.

Experiments:
Assay in all cases: Bacterial susceptibility testing (MIC, broth microdilution)
Assay type in all cases: cell-based
E. coli ATCC25922 = details: Escherichia coli
Outline: (§1)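 CLSI broth microdilution was run in cation-adjusted Mueller-Hinton broth with an inoculum of 3×10^5–7×10^5 CFU/mL and 2-fold compound dilutions. Plates were incubated in ambient air at 35° C for 18-24 h. MIC was the lowest concentration preventing visible growth (OD600 nm<0.05).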

K. pneumoniae ATCC13883 = details: Klebsiella pneumoniae
Outline: as §1

P. aeruginosa ATCC27853 = details: Pseudomonas aeruginosa
Outline: as §1

P. aeruginosa PAO1 = details: Pseudomonas aeruginosa
Outline: as §1

[1] = ATCC25922, broth microdilution, cation adjusted Mueller-Hinton Broth, 35° C., 18-24 h, read-out: E. coli ATCC25922 MIC
[2] = ATCC13883, broth microdilution, cation adjusted Mueller-Hinton Broth, 35° C., 18-24 h, read-out: K. pneumoniae ATCC13883 MIC
[3] = ATCC27853, broth microdilution, cation adjusted Mueller-Hinton Broth, 35° C., 18-24 h, read-out: P. aeruginosa ATCC27853 MIC
[4] = PAO1, broth microdilution, cation adjusted Mueller-Hinton Broth, 35° C., 18-24 h, read-out: P. aeruginosa PAO1 MIC
[5] = ATCC25922, read-out: E. coli ATCC25922 MIC
[6] = ATCC13883, read-out: K. pneumoniae ATCC13883 MIC
[7] = ATCC27853, read-out: P. aeruginosa ATCC27853 MIC
[8] = PAO1, read-out: P. aeruginosa PAO1 MIC

Structure (SMILES) | MIC (E. coli ATCC25922; [1]) [µg/mL] | MIC (K. pneumoniae ATCC13883; [2]) [µg/mL] | MIC (P. aeruginosa ATCC27853; [3]) [µg/mL] | MIC (P. aeruginosa PAO1; [4]) [µg/mL] | MIC (E. coli ATCC25922; [5]) [µg/mL] | MIC (K. pneumoniae ATCC13883; [6]) [µg/mL] | MIC (P. aeruginosa ATCC27853; [7]) [µg/mL] | MIC (P. aeruginosa PAO1; [8]) [µg/mL]
C[C@H](O)c1nccn1[C@@H](C#Cc1ccc(-c2ccc(NC3CC(NCC#N)C3)cc2)cc1)CO (stereo partly drawn) [Compound 68, 2-((3-((4′-((S)-4-hydroxy-3-(2-((S)-1-hydroxyethyl)-1H-imidazol-1-yl)but-1-yn-1-yl)-[1,1′-biphenyl]-4-yl)amino)cyclobutyl)amino) acetonitrile] | 1 (≈ 2.2 µM) | 2 (≈ 4.39 µM) | 4 (≈ 8.78 µM) | 2 (≈ 4.39 µM) | – | – | – | –
C[C@H](O)c1nccn1[C@@H](C#Cc1ccc(-c2ccc(NC3CN(CCC#N)C3)cc2)cc1)CO [Compound 79, 3-(3-((4′-((S)-4-hydroxy-3-(2-((S)-1-hydroxyethyl)-1H-imidazol-1-yl)but-1-yn-1-yl)-[1,1′-biphenyl]-4-yl)amino)azetidin-1-yl)propanenitrile] | – | – | – | – | 1 (≈ 2.2 µM) | 8 (≈ 17.6 µM) | 4 (≈ 8.78 µM) | 2 (≈ 4.39 µM)
CC(N1CC(Oc2ccc(-c3ccc(C#C[C@@H](CO)n4ccnc4[C@H](C)O)cc3)cc2)C1)C(F)(F)F (mixture of isomers) [Compound 97, (2S)-2-(2-((S)-1-hydroxyethyl)-1H-imidazol-1-yl)-4-(4′-((1-(1,1,1-trifluoropropan-2-yl)azetidin-3-yl)oxy)-[1,1′-biphenyl]-4-yl)but-3-yn-1-ol] | – | – | – | – | 4 (≈ 8.01 µM) | 8 (≈ 16 µM) | 32 (≈ 64.1 µM) | 16 (≈ 32 µM)
C[C@H](O)c1nccn1[C@@H](C#Cc1ccc(-c2ccc(C3CC(C)(O)C3)cc2)cc1)CO (stereo partly drawn) [Compound 111, 3-(4′-((S)-4-hydroxy-3-(2-((S)-1-hydroxyethyl)-1H-imidazol-1-yl)but-1-yn-1-yl)-[1,1′-biphenyl]-4-yl)-1-methylcyclobutan-1-ol] | 0.25 (≈ 0.6 µM) | 0.5 (≈ 1.2 µM) | 2 (≈ 4.8 µM) | 1.5 (≈ 3.6 µM) | – | – | – | –
C[C@H](O)c1nccn1[C@@H](C#Cc1ccc(-c2ccc(OC3CN(C(=O)CO)C3)cc2)cc1)CO [Compound 91, 2-hydroxy-1-(3-((4′-((S)-4-hydroxy-3-(2-((S)-1-hydroxyethyl)-1H-imidazol-1-yl)but-1-yn-1-yl)-[1,1′-biphenyl]-4-yl)oxy)azetidin-1-yl)ethan-1-one] | – | – | – | – | 2 (≈ 4.33 µM) | 4 (≈ 8.67 µM) | 4 (≈ 8.67 µM) | 2 (≈ 4.33 µM)
C[C@H](O)c1nccn1[C@@H](C#Cc1ccc(-c2ccc(O[C@@H]3CCOC[C@H]3O)c(F)c2)cc1)CO (single isomer, unassigned) [Compound 52] | 1 (≈ 2.14 µM) | 2 (≈ 4.29 µM) | 8 (≈ 17.1 µM) | 2 (≈ 4.29 µM) | – | – | – | –
C[C@H](O)c1nccn1[C@@H](C#Cc1ccc(-c2ccc(OC3CN(C(N)=O)C3)cc2)cc1)CO [Compound 94, 3-((4′-((S)-4-hydroxy-3-(2-((S)-1-hydroxyethyl)-1H-imidazol-1-yl)but-1-yn-1-yl)-[1,1′-biphenyl]-4-yl)oxy)azetidine-1-carboxamide] | – | – | – | – | 1 (≈ 2.24 µM) | 4 (≈ 8.96 µM) | 2 (≈ 4.48 µM) | 2 (≈ 4.48 µM)
C[C@H](O)c1nccn1[C@@H](C#Cc1ccc(-c2ccc(CO[C@@H]3COC[C@H]3O)c(F)c2)cc1)CO (racemic) [Compound 44, (rac-trans)-4-((3-fluoro-4′-((S)-4-hydroxy-3-(2-((S)-1-hydroxyethyl)-1H-imidazol-1-yl)but-1-yn-1-yl)-[1,1′-biphenyl]-4-yl)methoxy)tetrahydrofuran-3-ol] | 4 (≈ 8.57 µM) | 8 (≈ 17.1 µM) | 8 (≈ 17.1 µM) | 8 (≈ 17.1 µM) | – | – | – | –
C[C@H](O)c1nccn1[C@@H](C#Cc1ccc(-c2ccc(NC[C@@H]3COC[C@H]3O)cc2)cc1)CO (racemic) [Compound 69, (rac-trans)-4-(((4′-((S)-4-hydroxy-3-(2-((S)-1-hydroxyethyl)-1H-imidazol-1-yl)but-1-yn-1-yl)-[1,1′-biphenyl]-4-yl)amino)methyl)tetrahydrofuran-3-ol] | 1 (≈ 2.23 µM) | 2 (≈ 4.47 µM) | 2 (≈ 4.47 µM) | 1 (≈ 2.23 µM) | – | – | – | –
C[C@H](O)c1nccn1[C@@H](C#Cc1ccc(-c2ccc(NC3COC[C@@H]3O)cc2F)cc1)CO (single isomer, unassigned) [Compound 57] | 1 (≈ 2.21 µM) | 4 (≈ 8.86 µM) | 2 (≈ 4.43 µM) | 2 (≈ 4.43 µM) | – | – | – | –
